Reference: paper PMC12664080, “Tetrazole-containing naphthalene bis-sulfonamide Keap1-Nrf2 interaction inhibitors with unexpected binding modes” (Redox Biology, 2025)

Key:
[1] = system: NQO1; assay: NQO1 induction assay in Hepa1c1c7 cells; type: cell-based, mouse; details: Mus musculus, Hepa-1c1c7, 10 μM
Method: The method using Hepa1c1c7 cells has been described previously. Briefly, cells were seeded into 96-well plates (2 × 10^4 cells/200 μL per well) then incubated overnight at 37 °C. The cells were treated with compound (10 μM final concentration) or vehicle (final DMSO concentration 0.1 % DMSO) and incubated for a further 24 h or 48 h. The culture medium was aspirated and the cells treated with lysis buffer (50 μL per well, 0.1 % Tween 20 in 2 mM EDTA (pH 7.5)) then agitated for 15 min. Enzyme reaction mixture was added to each well (200 μL of 25 mM Tris buffer (pH 7.5) containing BSA (0.067 %), Tween20 (0.01 %), FAD (5 μM), G6P (1 mM), NADP (30 μM), G6P dehydrogenase (40 units), MTT (0.03 %), menadione (50 μM)) for 5 min then stop solution was applied (40 μL of 10 % SDS, final concentration 1.5 % SDS). Following brief agitation of the plate, the absorbance at 595 nm was measured. The background optical density was measured from wells containing tissue culture medium, lysis buffer, enzyme and stop solutions in the absence of Hepa1c1c7 cells. The change in background-corrected NQO1 activity (change in optical density) relative to the control was determined for each compound.

[2] = 1D 1H NMR lineshape analysis of cis/trans rotamer exchange; details: DMSO; for kA→B / ΔH^‡AB / ΔHAB: lineshape; for ΔH^‡AB: Eyring; for ΔHAB: van't Hoff
Method: Exchange was quantified using a two-site exchange model [40] implemented in Julia, where resonances were fitted to calculate chemical shifts of the two states and the exchange rates kAB and kBA between them. […] Reported uncertainties were determined from the standard errors of the fits.
Exchange rates kAB and kBA were used to determine the relative populations pA=kBA/kAB+kBA and pB=kAB/kAB+kBA and were fitted to van't Hoff and Eyring equations (with unit transmission coefficient) to estimate the enthalpy and entropy changes and enthalpy and entropy of activation.

[3] = system: Nrf2; assay: Nrf2 luciferase reporter assay (MCF7 ARE-luciferase reporter cell line); type: cell-based; details: Homo sapiens; 100 μM (highest test concentration), MCF7 cells; read-out: peak fold induction of luciferase activity
Method: The induction of luciferase activity in the stably transfected MCF7 ARE-luciferase reporter cell line was measured using an adaptation of a published procedure. […] The cells were treated with compound or vehicle control (1 % final DMSO concentration) and incubated for a further 24 h. The culture medium was aspirated and the cells were washed with 100 μL per well PBS. The cells were lysed using 75 μL per well lysis buffer (0.2 % Triton X-100 in 25 mM Tris pH 7.5) under gentle agitation at rt for 30 min. The samples were transferred to 500 μL Eppendorf tubes and centrifuged at 10000 g for 5 min at 4 °C. 50 μL of supernatant from each sample were transferred to a new 96 well plate. 50 uL of working reagent (100 mM Tris pH 8.0, 5 mM MgCl2, 100 μM coenzyme A, 80 μM luciferin, and 5 mM ATP) were added to each well and the luciferase activity was measured.

[4] = target: T1, Keap1 Kelch domain (Homo sapiens, UniProt Q14145); assay: Differential scanning fluorimetry (DSF) thermal shift assay; type: binding; details: 10 μM compound; Keap1 vehicle control Ti = 61.3 ± 0.3 °C
T1 construct: made in house
Method: The DSF assays were carried out according to the previously described method. Solutions of the Keap1 Kelch domain protein (5 μM final concentration) and the small molecule inhibitor (10 μM final concentration) were prepared in DPBS at pH 7.4 (10 % final DMSO concentration, 20 μL final volume) in an Eppendorf tube. The solution was centrifuged briefly (1500 rpm, 60 s) to remove any particulates and mix the samples, followed by a 30 min incubation at RT. The samples were loaded into Tycho NT.6 capillaries (Nanotemper) in triplicate and positioned in the […] instrument. […] The fluorescence ratio vs temperature was plotted and the inflection temperature (Ti) of the profile was recorded. Changes in inflection (ΔTi) for the inhibitors were calculated by subtracting the mean Ti of the Keap1 sample plus vehicle from the mean Keap1 plus binder value (n = 3).

[5] = target: T1, Keap1 Kelch domain; assay: Fluorescence polarisation (FP) competition assay; type: binding; details: for inhibition at 10 µM: read-out: FP percentage inhibition at 10 μM concentration of inhibitor; for IC50: 200 nM Keap1 Kelch domain, 1 nM FITC-β-DEETGEF-OH
Method: The FP assays were carried out according to previously described methods [[23],[31], [32], [33], [34]]. […] Following incubation under slow agitation (30 min at rt in the absence of light), the plates were transferred to a PHERAstar microplate reader and the FP was recorded. All measurements were recorded in triplicate. The data were normalised to the control and then fitted to a standard four-parameter logistic function using the Origin Pro software.

[6] = target: T1, Keap1 Kelch domain; assay: Isothermal titration calorimetry (ITC); type: binding; details: 25 °C; read-out: ITC Kd
Method: The measurements were performed as described previously. The small molecule inhibitor at 500 μM was titrated over 30 injections against 50 μM protein in buffer containing 25 mM HEPES (pH 7.4), 200 mM NaCl and 5 % DMSO. ITC experiments were performed using a MicroCal PEAQ-ITC instrument (Malvern Instruments, UK) at 25 °C with a stirring speed of 750 rpm. The first injection volume was of 0.3 μL followed by 29 injections of 1.3 μL and a gap of 120 s between each injection. Data analyses were performed as previously described. Each small molecule ITC measurement was performed in duplicate and resultant values obtained were averaged after independent analysis.

[7] = target: Keap1 (Homo sapiens, UniProt Q14145); assay: Microscale thermophoresis (MST); details: 10 nM Keap1
Keap1, sequence (Q14145 322-609): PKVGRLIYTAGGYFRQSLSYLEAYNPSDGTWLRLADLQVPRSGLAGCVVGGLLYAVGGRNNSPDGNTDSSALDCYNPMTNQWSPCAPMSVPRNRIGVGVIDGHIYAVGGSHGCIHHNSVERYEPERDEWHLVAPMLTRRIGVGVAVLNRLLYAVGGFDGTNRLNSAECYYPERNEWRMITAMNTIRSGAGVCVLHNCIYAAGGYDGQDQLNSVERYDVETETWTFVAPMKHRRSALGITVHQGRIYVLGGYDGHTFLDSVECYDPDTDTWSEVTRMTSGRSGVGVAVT
Method: Keap1 was labelled using the Protein Labelling Kit RED-NHS 2nd Generation (NanoTemper, München, Germany). Keap1 was diluted to 2 μM in RED-NHS Labelling Buffer. 10 μg of RED-NHS 2nd Generation labelling dye was freshly dissolved in 25 μL of DMSO to yield a concentration of 600 μM, then further diluted in RED-NHS Labelling Buffer to 300 μM. A volume of 20 μL of the 300 μM labelling dye was thoroughly mixed with 180 μL of 2 μM Keap1 and incubated at rt in a dark environment for 3 h. […] The sample was transferred to the centre of the resin bed in the B-column. 550 μL of Keap1 MST buffer was pipetted into the B-column and allowed to enter completely, followed by elution of the sample with 450 μL of Keap1 MST buffer and the flow-through was collected into a 1.5 mL Eppendorf tube. The collected sample was centrifuged at 15,000×g for 10 min at 4 °C to remove aggregates. Protein concentration in the collected sample was determined using the NanoDrop spectrophotometer. The sample was then tested in MST pre-test to evaluate the labelling quality.
Labelled Keap1 was diluted to 20 nM in Keap1 MST buffer prior to the reaction setup. […] An equal volume of 20 nM Keap1 was thoroughly mixed with each diluted sample and incubated for 30 min at rt. […] An equal volume of 2 nM Keap1 was mixed with each diluted sample and incubated at rt for 30 min. Incubated samples were loaded into Monolith NT.115 standard capillaries and measured using the Monolith NT.115^Pico instrument in triplicate. Parameters and measurements were set and controlled by the MO.Control software and collected datasets were analysed using the MO.Affinity Analysis software.

T1 sequence (Q14145 322-609): as above

Compound: COc1ccc(S(=O)(=O)N(CC(=O)O)c2ccc(N(CC(=O)O)S(=O)(=O)c3ccc(OC)cc3)c3ccccc23)cc1 [Compound 2, 2,2'-(Naphthalene-1,4-diylbis(((4-methoxyphenyl)sulfonyl)azanediyl))diacetic acid, reference compound]
- fold induction at 10 µM [1]: 2.34 ± 0.35
- Occupancy of the more shielded state (A) ([2]; 300 K): 0.426 ±0.001
- kA→B ([2]; 300 K): 3.175 ± 0.005 s⁻¹
- Occupancy of the more shielded state (A) ([2]; 310 K): 0.436 ±0.001
- kA→B ([2]; 310 K): 8.456 ± 0.024 s⁻¹
- Occupancy of the more shielded state (A) ([2]; 320 K): 0.443 ±0.001
- kA→B ([2]; 320 K): 18.949 ± 0.04 s⁻¹
- ΔH^‡AB [2]: 15.8 ± 0.598 kcal/mol
- ΔHAB [2]: -0.636 ± 0.0598 kcal/mol
- fold induction at 100 µM [3]: 10.9

Compound: COc1ccc(S(=O)(=O)N(CC(N)=O)c2ccc(N(CC(N)=O)S(=O)(=O)c3ccc(OC)cc3)c3ccccc23)cc1 [Compound 4, 2,2'-(Naphthalene-1,4-diylbis(((4-methoxyphenyl)sulfonyl)azanediyl))diacetamide]
- DSF ΔTi [4]: 7.6 ± 0.1 °C

Compound: CCOC(=O)CN(c1ccc(N(CC(=O)OCC)S(=O)(=O)c2ccc(OC)cc2)c2ccccc12)S(=O)(=O)c1ccc(OC)cc1 [Compound 11, Diethyl 2,2'-(naphthalene-1,4-diylbis(((4-methoxyphenyl)sulfonyl)azanediyl))diacetate]
- inhibition at 10 µM [5]: 0%

Compound: COc1ccc(S(=O)(=O)N(CC#N)c2ccc(N(CC#N)S(=O)(=O)c3ccc(OC)cc3)c3ccccc23)cc1 [Compound 12, N,N'-(Naphthalene-1,4-diyl)bis(N-(cyanomethyl)-4-methoxybenzenesulfonamide)]
- fold induction at 10 µM [1]: 0.89 ± 0.24
- inhibition at 10 µM [5]: 0%

Compound: COc1ccc(S(=O)(=O)N(Cc2nnn[nH]2)c2ccc(N(Cc3nnn[nH]3)S(=O)(=O)c3ccc(OC)cc3)c3ccccc23)cc1 [Compound 13, N,N'-(Naphthalene-1,4-diyl)bis(N-((1H-tetrazol-5-yl)methyl)-4-methoxybenzenesulfonamide)]
- Kd [6]: 75.6 ± 33.9 nM
- Kd [7]: 17.1 ± 2.6 nM
- fold induction at 10 µM [1]: 1.94 ± 0.22
- IC50 [5]: 76 ± 3 nM
- DSF ΔTi [4]: 20.4 ± 0.1 °C
- Occupancy of the more shielded state (A) ([2]; 300 K): 0.542 ±0.003
- kA→B ([2]; 300 K): 1.063 ± 0.008 s⁻¹
- Occupancy of the more shielded state (A) ([2]; 310 K): 0.548 ±0.001
- kA→B ([2]; 310 K): 1.459 ± 0.006 s⁻¹
- Occupancy of the more shielded state (A) ([2]; 320 K): 0.552 ±0.001
- kA→B ([2]; 320 K): 2.927 ± 0.010 s⁻¹
- ΔH^‡AB [2]: 10.4 ± 2.29 kcal/mol
- ΔHAB [2]: -0.394 ± 0.0406 kcal/mol

Compound: COc1ccc(S(=O)(=O)N(Cc2nnc(C)o2)c2ccc(N(Cc3nnc(C)o3)S(=O)(=O)c3ccc(OC)cc3)c3ccccc23)cc1 [Compound 17, N,N'-(Naphthalene-1,4-diyl)bis(4-methoxy-N-((5-methyl-1,3,4-oxadiazol-2-yl)methyl)benzenesulfonamide)]
- fold induction at 10 µM [1]: 1.25 ± 0.18
- binding activity in FP assay [5]: not tolerated
- inhibition at 10 µM [5]: 0%
- DSF ΔTi [4]: 0.6 ± 0.1 °C

Compound: CCOC(=O)CN(c1ccc(N(CC(=O)O)S(=O)(=O)c2ccc(OC)cc2)c2ccccc12)S(=O)(=O)c1ccc(OC)cc1 [Compound 22, 2-(N-(4-(N-(2-Ethoxy-2-oxoethyl)-4-methoxyphenylsulfonamido)naphthalen-1-yl)-4-methoxyphenylsulfonamido)acetic acid]
- fold induction at 10 µM [1]: 0.77 ± 0.18
- binding activity in FP assay [5]: inactive
- inhibition at 10 µM [5]: 0%

Compound: COc1ccc(S(=O)(=O)N(CC(N)=O)c2ccc(N(CC(=O)O)S(=O)(=O)c3ccc(OC)cc3)c3ccccc23)cc1 [Compound 23, 2-(N-(4-(N-(2-Amino-2-oxoethyl)-4-methoxyphenylsulfonamido)naphthalen-1-yl)-4-methoxyphenylsulfonamido)acetic acid]
- fold induction at 10 µM [1]: 1.9 ± 0.05
- IC50 [5]: 143 ± 18 nM
- DSF ΔTi [4]: 10.0 ± 0.2 °C
